Assay results: patent EP4417202A1, “ANTI-CANCER ACTION OF BAG1-SELECTIVE IMIDAZOPYRIDINE COMPOUNDS IN STEROID HORMONE RECEPTOR-POSITIVE BREAST AND PROSTATE CANCER” (Karlsruher Institut für Technologie, priority 2023, dated 2024)

Assays:
MCF-7 and T47D cells = experiment: Apoptosis assessment, 7-AAD and Annexin V double staining; type: cell-based; settings: 1 µM, 48 h
Description: Induction of apoptosis in response to treatment with X15695 was analyzed in MCF-7 and T47D cells using PE Annexin V Apoptosis Detection Kit with 7-AAD (BD Bioscience, San Diego, CA, USA) according to the manufacturer's protocol. In short, cells were harvested by trypsinization, and single cell suspensions (1×10^6 cells) were prepared as described above in 100 µl PBS. Cells were stained with 5 µl PE Annexin V and 5 µl 7-AAD for 15 min at room temperature in the dark. Subsequently, 400 µl PBS were added to each sample and flow cytometry measurements were performed within one hour. Cells stained with PE Annexin V or 7-AAD alone were used for compensation. Flow cytometry analysis was performed using BD FACSAria (BD Biosciences, Franklin Lakes, NJ, USA). Flow cytometry data were analyzed using FlowJo 10.8.1 cytometry analysis software (FlowJo, LLC).

MCF-7 tumors = experiment: Mouse xenograft experiment, MCF-7; type: in vivo; settings: MCF-7 xenograft
Description: MCF-7 and LAPC-4 cells (2×10^6) were suspended in 100 µl PBS: Matrigel (Corning NY USA, 1:1) and injected subcutaneously into both flanks of 6-7 weeks old female (for MCF-7 cells) and male (for LAPC-4 cells) athymic nude-Foxn1^nu mice (Envigo RMS GmbH, Düsseldorf, Germany). When tumor volumes were around 50 to100 mm^3, mice were randomized into four groups (7 mice per group) and treated daily by oral gavage as follows: (1) Control group (Vehicle) (corn oil, 1.0% dimethyl sulfoxide (DMSO) and (2) X15695 group, 30 mg per kg body weight) for the MCF-7 tumors or (1) Control group (Vehicle) (corn oil, 1.0% dimethyl sulfoxide (DMSO) (2) enzalutamide (Enza group, 15 mg per kg body weight), (3) X15695 group, 30 mg per kg body weight) and, (4) X15695 group (15 mg per kg body weight) for the LAPC-4 tumors. Body weight and tumor volumes were measured twice a week. Tumor volume was measured with a digital vernier caliper and calculated using the formula vol = length × width × height × 0.5236 and recorded or calculated relative to the starting volume which was nominally set at 100%. After 16 days for the MCF-7 tumors or 42 days for the LAPC-4 tumors, mice were sacrificed and the tumors removed, photographed, and weighed. Percent body weight change was calculated using the following formula: group percent weight change = [(new weight - initial weight)/initial weight] × 100]. Tumors were snap-frozen and stored for Western blot analysis.

ERα response genes = experiment: Quantitative RT-PCR of ERα response genes in MCF-7 and T47D cells; type: cell-based; settings: 1 µM, 10 nM E2, 16 h
Description: (§1) MCF-7, T47D and LNCaP cells (5×10^4 each) were seeded in 6-well plates and cultured with hormone-depleted medium for 3 days. Subsequently, the MCF-7 and T47D cells were treated with 10 nM 17-β-estradiol (E2) or dihydrotestosterone (DHT) for the LNCaP cells, 1 µM) X15695 (for the MCF-7 and T47D cells) or 5 µM) for LNCaP cells and X15695 together with E2 or DHT. A 1 h pre-treatment with X15695 was performed prior to treatment with E2 or DHT for 16 h. RNA was extracted using innuPREP RNA mini Kit 2.0 (Analytic Jena, Berlin, Germany). 1 µg RNA per sample was used as input material for the RNA sample preparations. Sequencing libraries were generated using NEBNext® UltraTM RNA Library Prep Kit for Illumina® (NEB, USA) following the manufacturer's recommendations and index codes were added to attribute sequences to each sample. The clustering of the index-coded samples was performed on a cBot Cluster Generation System using PE Cluster Kit cBot-HS (Illumina) according to the manufacturer's instructions. After cluster generation, the library preparations were sequenced on an Illumina platform and paired-end reads were generated. Library preparation and sequencing were carried out by Novogene Europe, Cambridge, UK. […] Select target genes were analyzed by RT-PCR experiments with RNA from the samples used for the RNA-seq analysis. […]

p53 = experiment: Immunofluorescence assay, cellular localization of p53; type: cell-based; settings: MCF-7 cells, 1 µM
Description: For immunofluorescence assay, MCF-7, T47D, 22Rv.1, LAPC-4 and LNCaP cells (10^4 each) were seeded on coverslips in a 24-well plate and the desired treatment applied. After three times washing with PBS, cells were fixed with 4% paraformaldehyde solution for 10 min at room temperature. Next, the cells were washed three times with PBS and permeabilized with 0.5% Triton X-100 for 10 min at room temperature. Following three additional washing steps with PBS, cells were treated with 5% bovine serum albumin (w/v) for 1 h at room temperature and subjected to overnight incubation with the primary antibody p53 (DO1 clone or Sp5, Thermo Fisher Scientific), ERα (F-10, Santa-Cruz) or mortalin (D-9, Santa-Cruz) and then washed three times with PBS followed by incubation with goat anti-mouse IgG, Alexa Fluor™ 488 antibody and/or goat anti-rabbit IgG, Alexa Fluor™ 546 antibody (Thermo Fisher Scientific) for 1 h at room temperature in the dark. All subsequent steps were performed in the dark. Cells were washed 3 times with PBS and stained with 0.1 µg/ml DAPI (Thermo Fisher Scientific) solution at 1:10,000 (v/v) dilution for 15 min at room temperature. After three times washing with PBS the cells were mounted in Mowiol® 4-88 on microscope slides and observed by laser-scanning confocal microscopy (Confocal Microscope platform […]6-LSM900, […], Germany).

ERα = test system: ERα
Description: For Western blotting, cells were lysed in NP-40 lysis buffer (1% NP-40, 50 mM Tris-HCl, pH 8.0, 150 mM NaCl, 5 mM EDTA) or 1× passive lysis buffer (Promega, Germany) for 15 min on ice. Cell debris was removed by centrifugation at 13,000 rpm for 10 min and used for SDS-polyacrylamide gel electrophoresis (PAGE) and Western blotting.
Western Blotting was carried out using standard protocols with antibodies: p53 (clone DO1), p53 (Sp5, Thermo Fisher Scientific Karlsruhe, Germany), Mdm2 (4B2, Abcam, Cambridge, UK). […] Secondary goat anti-mouse and goat anti-rabbit antibodies were purchased from DAKO (Bollschweil, Germany).

p53 target genes = experiment: Quantitative RT-PCR of p53 target genes in MCF-7 and T47D cells; type: cell-based; settings: 1 µM, absence and presence of E2, 16 h
Description: as §1

[1] = 30 mg/kg body weight per os daily
[2] = Western blot after the treatment period

Fc1ccc(-c2cn3cc(C(F)(F)F)cc(Cl)c3n2)cc1 [Compound X15695, 8-Chloro-2-(4-fluorophenyl)-6-(trifluoromethyl)imidazo[1,2-a]pyridine]
apoptosis (MCF-7 and T47D cells): increased number of the cells in the late stage of apoptosis | tumor volume (MCF-7 tumors; [1]): significant decrease | tumor weight (MCF-7 tumors; [1]): significant decrease | tolerability, body weight (MCF-7 tumors; 30 mg/kg body weight per os daily, 16 days): well tolerated and did not cause any weight loss or other signs of host toxicity | ERα level in tumor lysates (MCF-7 tumors; [2]): significant decrease in ERα level | p53 expression in tumor lysates (MCF-7 tumors; [2]): increase in p53 expression | E2-mediated gene expression (ERα response genes): downregulation of E2-mediated gene expression | cellular localization of p53 (p53): accumulated in the nucleus as early as 8 h after X15695 treatment | ERα downregulation over time (ERα; MCF-7 cells, 1 µM, time course): rather slow but more sustained downregulation lasing over 24 to 48 h | concentration sufficient to downregulate ERα (ERα; MCF-7 cells, 8 h): ≤ 1 nM | ERα level (ERα; immunoblotting, MCF-7 and T47D cells, 48 h): dose-dependently decreased ERα level | expression of p53 target genes (p53 target genes): upregulation of expression of p53 target genes
